In US6251919A, “Heterocyclic substituted aniline calcium channel blockers” (Warner-Lambert, priority 1999, dated 2001):
pIC50: −log10 of the molar value.

Target: T1, N-type Ca^2+ channel in IMR-32 cells (Homo sapiens, UniProt Q00975)
T1 construct: host or cells: IMR-32 (differentiated with dibutyryl cAMP and bromodeoxyuridine)
Assay: N-type Ca2+ channel blockade in IMR-32 cells (fluorescent Ca2+ indicator Indo-1)
Format: cell-based
Conditions: 5 μM nitrendipine present; for inhibition at 1 µM: IMR-32, 1 μM; for inhibition at 10 µM: IMR-32, 10 μM

T1 sequence (Q00975 whole entry): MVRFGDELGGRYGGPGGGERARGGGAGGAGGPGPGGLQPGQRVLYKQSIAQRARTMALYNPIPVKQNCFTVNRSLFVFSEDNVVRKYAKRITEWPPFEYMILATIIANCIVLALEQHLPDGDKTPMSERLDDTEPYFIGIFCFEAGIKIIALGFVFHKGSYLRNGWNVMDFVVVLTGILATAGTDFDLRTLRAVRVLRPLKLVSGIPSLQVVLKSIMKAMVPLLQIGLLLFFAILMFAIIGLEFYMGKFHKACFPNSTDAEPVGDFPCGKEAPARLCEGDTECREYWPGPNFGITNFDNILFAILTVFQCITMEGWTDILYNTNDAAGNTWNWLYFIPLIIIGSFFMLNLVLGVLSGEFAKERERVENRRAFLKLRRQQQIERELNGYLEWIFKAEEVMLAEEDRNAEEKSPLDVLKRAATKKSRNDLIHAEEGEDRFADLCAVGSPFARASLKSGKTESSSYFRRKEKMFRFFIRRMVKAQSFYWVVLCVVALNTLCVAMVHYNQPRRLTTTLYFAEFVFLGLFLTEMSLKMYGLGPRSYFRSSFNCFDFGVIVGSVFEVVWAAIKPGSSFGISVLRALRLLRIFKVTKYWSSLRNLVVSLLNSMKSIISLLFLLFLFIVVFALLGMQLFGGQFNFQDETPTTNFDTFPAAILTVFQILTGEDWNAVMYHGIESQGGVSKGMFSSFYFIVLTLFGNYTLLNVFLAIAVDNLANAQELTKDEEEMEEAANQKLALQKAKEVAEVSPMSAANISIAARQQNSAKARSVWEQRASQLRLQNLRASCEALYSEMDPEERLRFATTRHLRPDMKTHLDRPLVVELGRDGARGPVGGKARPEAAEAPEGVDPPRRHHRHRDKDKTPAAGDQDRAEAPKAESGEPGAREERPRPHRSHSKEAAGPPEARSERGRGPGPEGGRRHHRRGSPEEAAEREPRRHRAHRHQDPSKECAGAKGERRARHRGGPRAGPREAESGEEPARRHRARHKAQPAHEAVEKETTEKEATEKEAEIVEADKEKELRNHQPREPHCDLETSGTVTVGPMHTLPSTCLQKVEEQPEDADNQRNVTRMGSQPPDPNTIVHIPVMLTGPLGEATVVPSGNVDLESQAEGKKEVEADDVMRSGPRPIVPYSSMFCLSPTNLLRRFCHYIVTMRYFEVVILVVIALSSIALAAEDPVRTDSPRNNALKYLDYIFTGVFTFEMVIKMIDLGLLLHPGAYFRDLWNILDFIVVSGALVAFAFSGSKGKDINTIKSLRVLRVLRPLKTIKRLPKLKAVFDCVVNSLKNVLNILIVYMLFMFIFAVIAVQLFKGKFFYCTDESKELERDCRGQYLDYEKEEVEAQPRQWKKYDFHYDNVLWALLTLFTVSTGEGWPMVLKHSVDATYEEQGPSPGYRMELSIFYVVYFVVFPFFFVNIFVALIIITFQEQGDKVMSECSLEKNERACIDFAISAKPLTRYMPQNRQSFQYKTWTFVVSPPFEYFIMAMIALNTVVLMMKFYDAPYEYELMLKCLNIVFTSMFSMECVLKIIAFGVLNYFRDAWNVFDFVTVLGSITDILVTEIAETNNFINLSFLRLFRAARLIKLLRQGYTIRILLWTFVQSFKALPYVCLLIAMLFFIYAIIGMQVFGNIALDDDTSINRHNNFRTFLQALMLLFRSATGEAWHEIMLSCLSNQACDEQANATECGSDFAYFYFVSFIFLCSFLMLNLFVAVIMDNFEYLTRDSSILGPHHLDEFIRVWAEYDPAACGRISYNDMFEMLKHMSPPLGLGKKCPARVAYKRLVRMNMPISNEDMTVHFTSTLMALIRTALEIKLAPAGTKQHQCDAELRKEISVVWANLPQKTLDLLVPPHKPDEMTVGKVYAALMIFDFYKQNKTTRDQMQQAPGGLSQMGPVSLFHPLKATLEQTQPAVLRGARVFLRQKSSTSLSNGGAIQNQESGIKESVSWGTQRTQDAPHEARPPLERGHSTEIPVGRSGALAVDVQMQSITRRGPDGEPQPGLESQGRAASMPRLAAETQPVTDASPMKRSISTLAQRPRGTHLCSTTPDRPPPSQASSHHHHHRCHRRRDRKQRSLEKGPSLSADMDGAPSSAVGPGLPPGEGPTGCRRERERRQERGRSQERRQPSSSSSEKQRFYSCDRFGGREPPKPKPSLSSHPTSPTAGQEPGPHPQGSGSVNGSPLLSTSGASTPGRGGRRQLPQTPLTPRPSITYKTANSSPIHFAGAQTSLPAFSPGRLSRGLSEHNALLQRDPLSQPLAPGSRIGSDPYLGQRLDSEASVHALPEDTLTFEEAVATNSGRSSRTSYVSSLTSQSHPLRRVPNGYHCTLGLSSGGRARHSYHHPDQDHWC

Structure (SMILES) | inhibition at 1 µM [%] | inhibition at 10 µM [%] | pIC50
CC(C)=CCN(c1ccc(OCc2ccccc2)cc1)C1CCN(Cc2ccc(C(C)(C)C)cc2)CC1 [Example 3, (4-Benzyloxy-phenyl)-[1-(4-tert-butyl-benzyl)-piperidin-4-yl]-(3-methyl-but-2-enyl)-amine] | 96 | – | –
CC(C)=CCN(c1ccc(OCc2ccccc2)cc1)C1CCN(Cc2ccc(Br)cc2)CC1 [Example 4, (4-Benzyloxy-phenyl)-[1-(4-bromo-benzyl)-piperidin4-yl]-(3-methyl-but-2-enyl)-amine] | 63 | 94 | –
CC(C)=CCN(c1ccc(OCc2ccccc2)cc1)C1CCN(Cc2ccccn2)CC1 [Example 9, (4-Benzyloxy-phenyl)-(3-methyl-but-2-enyl)-(1-pyridin-2-ylmethyl-piperidin-4-yl)-amine] | 30 | 100 | –
CC(C)=CCN(c1ccc(OCc2ccccc2)cc1)C1CCN(C2CCOCC2)CC1 [Example 10, (4-Benyloxy-phenyl)-(3-methyl-but-2-enyl)-[1-(tetrahydro-pyran4-yl)-piperidin-4-yl]-amine] | 15 | 62 | –
CC(C)=CCN(c1ccc(OCc2ccccc2)cc1)C1CCN(Cc2ccco2)CC1 [Example 21, (4-Benzyloxy-phenyl)-(1-furan-2-ylmethyl-piperidin-4-yl)-(3-methyl-but-2-enyl)-amine] | – | – | 5.41

Further lines, with some results ahead:

inhibition at 1 µM [%] | inhibition at 10 µM [%] | Structure (SMILES) | pIC50
41 | 80 | CC(C)=CCN(c1ccc(OCc2ccccc2)cc1)C1CCN(C(=O)C2CCCCN2CCC(C)C)CC1 (stereo not shown) [Example 11, {4-[(4-Benzyloxy-phenyl)-(3-methyl-but-2-enyl)-amino]-piperidin-1-yl}-[1-(3-methyl-butyl)-piperidin-2-yl]-methanone] | –
49 | 75 | CC(C)=CCN(c1ccc(OCc2ccccc2)cc1)C1CCN(C(=O)C2CCCN(CCC(C)C)C2)CC1 (stereo not shown) [Example 12, {4-[(4-Benzyloxy-phenyl)-(3-methyl-but-2-enyl)-amino]-piperidin-1-yl}-[1-(3-methyl-butyl)-piperidin-3-yl]-methanone] | –
37 | 75 | CC(C)=CCN(c1ccc(OCc2ccccc2)cc1)C1CCN(C(=O)C2CCN(CCC(C)C)CC2)CC1 [Example 13, {4-[(4-Benzyloxy-phenyl)-(3-methyl-but-2-enyl)-amino]-piperidin-1-yl}-[1-(3-methyl-butyl)-piperidin-4-yl]-methanone] | –
44 | 88 | CC(C)=CCN(c1ccc(OCc2ccccc2)cc1)C1CCN(C(=O)C2CN(C)CCN2CCC(C)C)CC1 (stereo not shown) [Example 14, {4-[(4-Benzyloxy-phenyl)-(3-methyl-but-2-enyl)-amino]-piperidin-1-yl}-[4-methyl-1-(3-methyl-butyl)-piperazin-2-yl]-methanone] | –
45 | 78 | CC(C)=CCN(c1ccc(OCc2ccccc2)cc1)C1CCN(C(=O)C2CCCC(C)N2CCC(C)C)CC1 (stereo not shown) [Example 16, {4-[(4-Benzyloxy-phenyl)-(3-methyl-but-2-enyl)-amino]-piperidin-1-yl}-[6methyl-1-(3-methyl-butyl)-piperidin-2-yl]-methanone] | –
86 | 76 | CC(C)=CCN(c1ccc(OCc2ccccc2)cc1)C1CCN(C(=O)C2CC(C)CCN2CCC(C)C)CC1 (stereo not shown) [Example 17, {4-[(4-Benzyloxy-phenyl)-(3-methyl-but-2-enyl)-amino]-piperidin-1-yl}-[4-methyl-1-(3-methyl-butyl)-piperidin-2-yl]-methanone] | –
60 | 88 | CC(C)=CCN(c1ccc(OCc2ccccc2)cc1)C1CCN(C(=O)C2C(C)CCCN2CCC(C)C)CC1 (stereo not shown) [Example 18, {4-[(4-Benzyloxy-phenyl)-(3-methyl-but-2-enyl)-amino]-piperidin-1-yl}-[3-methyl-1-(3-methyl-butyl)-piperidin-2-yl]-methanone] | –
